Results published in ChEMBL document CHEMBL1144099, “Three new antibacterial alkaloids from a marine sponge Stelletta species” (1999).

Tested on: Escherichia coli
Assay: Antibacterial activity against Escherichia coli at 20 ug/6 mm disk
Assay type: functional

SMILES	inhibition zone (IZ) [mm]
CC(C)=CCC/C(C)=C/CC/C(C)=C/CC/C(C)=C/C(=O)NCCc1cn(CCCN)c[n+]1C.[Cl-] [STELLETTAZOLE C]	6.2
CC(C)=CCC/C(C)=C/CC/C(C)=C/CC/C(C)=C/C(=O)NCCc1cn(CCCNC(=N)N)c[n+]1C.[Cl-] [STELLETTAZOLE B]	6.1
CC(C)=CCC/C(C)=C/CC/C(C)=C/CC(=O)NC[C@@H]1CC[N+]2(C)CCCC[C@H]12.[Cl-] (stereo partly drawn) [STELLETTAMIDE C]	10.5
